Test results as given in ChEMBL document CHEMBL2346515, “Discovery of 4-alkylamino-7-aryl-3-cyanoquinoline LRRK2 kinase inhibitors” (Bioorg Med Chem Lett, 2013).

Tests used:
[1] = biological target: RAF proto-oncogene serine/threonine-protein kinase (Homo sapiens) (UniProt P04049); assay: Inhibition of RAF1 (unknown origin) at 1 uM by single point assay
[2] = biological target: Cyclin-dependent kinase 1/cyclin B1 (Homo sapiens) (UniProt P06493+P14635); assay: Inhibition of CDK1/cyclin B (unknown origin) at 1 uM by single point assay; format: protein-complex assay
[3] = biological target: PI3-kinase p110-alpha/p85-alpha (Homo sapiens) (UniProt P27986+P42336); assay: Inhibition of PIK3CA/PIK3R1 (unknown origin) at 1 uM by single point assay; format: protein-complex assay
[4] = biological target: Serine/threonine-protein kinase PLK1 (Homo sapiens) (UniProt P53350); assay: Inhibition of PLK1 (unknown origin) at 1 uM by single point assay
[5] = biological target: Rho-associated protein kinase 2 (Homo sapiens) (UniProt O75116); assay: Inhibition of ROCK2 (unknown origin) at 1 uM by single point assay
[6] = biological target: Receptor tyrosine-protein kinase erbB-4 (Homo sapiens) (UniProt Q15303); assay: Inhibition of ErbB4 (unknown origin) at 1 uM by single point assay
[7] = biological target: T1, Serine/threonine-protein kinase 3 (Homo sapiens) (UniProt Q13188); assay: Inhibition of STK3 (unknown origin) at 1 uM by single point assay
T1 sequence (whole entry): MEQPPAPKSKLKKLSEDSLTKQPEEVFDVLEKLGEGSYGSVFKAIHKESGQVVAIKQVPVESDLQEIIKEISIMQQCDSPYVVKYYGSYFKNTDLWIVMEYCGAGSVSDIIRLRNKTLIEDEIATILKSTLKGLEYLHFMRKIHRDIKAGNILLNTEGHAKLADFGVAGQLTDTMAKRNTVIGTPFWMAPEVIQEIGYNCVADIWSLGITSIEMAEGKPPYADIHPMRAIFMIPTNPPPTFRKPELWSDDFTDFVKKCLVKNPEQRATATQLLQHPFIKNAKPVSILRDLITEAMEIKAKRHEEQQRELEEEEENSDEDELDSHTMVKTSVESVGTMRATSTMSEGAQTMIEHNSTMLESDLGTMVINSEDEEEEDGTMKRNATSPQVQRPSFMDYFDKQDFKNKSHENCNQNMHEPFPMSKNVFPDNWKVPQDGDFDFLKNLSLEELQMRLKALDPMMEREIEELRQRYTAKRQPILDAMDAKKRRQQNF

[8] = biological target: Cyclin-dependent kinase 2/cyclin A (Homo sapiens) (UniProt P24941+P20248+P78396); assay: Inhibition of CDK2/cyclin A (unknown origin) at 1 uM by single point assay; format: protein-complex assay
[9] = biological target: Serine/threonine-protein kinase MARK2 (Homo sapiens) (UniProt Q7KZI7); assay: Inhibition of MARK2 (unknown origin) at 1 uM by single point assay
[10] = biological target: Serine/threonine-protein kinase PLK2 (Homo sapiens) (UniProt Q9NYY3); assay: Inhibition of PLK2 (unknown origin) at 1 uM by single point assay
[11] = biological target: Leucine-rich repeat serine/threonine-protein kinase 2 (Homo sapiens, UniProt Q5S007); assay: Inhibition of LRRK2 (unknown origin) at 1 uM by single point assay
[12] = biological target: T2, Interleukin-1 receptor-associated kinase 4 (Homo sapiens) (UniProt Q9NWZ3); assay: Inhibition of IRAK4 (unknown origin) at 1 uM by single point assay
T2 sequence (whole entry): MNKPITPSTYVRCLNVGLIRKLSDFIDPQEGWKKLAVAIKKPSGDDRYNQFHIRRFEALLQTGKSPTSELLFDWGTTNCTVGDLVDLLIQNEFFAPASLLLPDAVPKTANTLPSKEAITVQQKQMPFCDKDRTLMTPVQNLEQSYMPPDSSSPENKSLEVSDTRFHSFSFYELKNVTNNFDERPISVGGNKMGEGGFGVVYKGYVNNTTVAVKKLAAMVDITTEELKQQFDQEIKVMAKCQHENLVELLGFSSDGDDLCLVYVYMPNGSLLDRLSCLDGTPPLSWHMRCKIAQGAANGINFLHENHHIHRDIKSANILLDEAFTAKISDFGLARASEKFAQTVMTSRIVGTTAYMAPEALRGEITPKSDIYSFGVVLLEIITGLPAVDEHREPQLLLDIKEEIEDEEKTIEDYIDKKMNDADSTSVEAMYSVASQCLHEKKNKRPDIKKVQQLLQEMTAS

[13] = biological target: T3, Mitogen-activated protein kinase kinase kinase 7 (Homo sapiens) (UniProt O43318); assay: Inhibition of MAP3K7 (unknown origin) at 1 uM by single point assay
T3 sequence (whole entry): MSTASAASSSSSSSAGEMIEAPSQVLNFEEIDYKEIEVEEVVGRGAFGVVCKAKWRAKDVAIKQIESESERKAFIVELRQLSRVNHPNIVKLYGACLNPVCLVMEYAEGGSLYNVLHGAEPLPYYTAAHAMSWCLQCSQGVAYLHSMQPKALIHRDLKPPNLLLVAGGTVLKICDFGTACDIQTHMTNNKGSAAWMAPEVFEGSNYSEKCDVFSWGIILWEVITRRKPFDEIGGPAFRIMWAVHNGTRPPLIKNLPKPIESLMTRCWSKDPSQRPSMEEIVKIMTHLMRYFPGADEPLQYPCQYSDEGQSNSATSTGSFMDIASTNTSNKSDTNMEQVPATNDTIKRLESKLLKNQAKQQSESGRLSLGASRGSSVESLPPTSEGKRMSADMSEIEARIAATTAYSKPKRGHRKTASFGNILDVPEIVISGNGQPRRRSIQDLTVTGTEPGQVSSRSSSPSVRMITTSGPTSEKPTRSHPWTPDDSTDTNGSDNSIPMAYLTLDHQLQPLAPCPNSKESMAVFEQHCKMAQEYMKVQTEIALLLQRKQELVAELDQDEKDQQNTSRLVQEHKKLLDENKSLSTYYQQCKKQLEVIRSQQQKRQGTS

[14] = biological target: Serine/threonine-protein kinase PAK 4 (Homo sapiens) (UniProt O96013); assay: Inhibition of PAK4 (unknown origin) at 1 uM by single point assay
[15] = biological target: Dual specificity tyrosine-phosphorylation-regulated kinase 1B (Homo sapiens) (UniProt Q9Y463); assay: Inhibition of DYRK1B (unknown origin) at 1 uM by single point assay
[16] = biological target: Calcium/calmodulin-dependent protein kinase type II subunit alpha (Homo sapiens) (UniProt Q9UQM7); assay: Inhibition of CAMK2alpha (unknown origin) at 1 uM by single point assay
[17] = biological target: Receptor-type tyrosine-protein kinase FLT3 (Homo sapiens) (UniProt P36888); assay: Inhibition of FLT3 (unknown origin) at 1 uM by single point assay
[18] = biological target: Tyrosine-protein kinase Lck (Homo sapiens) (UniProt P06239); assay: Inhibition of LCK (unknown origin) at 1 uM by single point assay
[19] = biological target: Protein-tyrosine kinase 2-beta (Homo sapiens) (UniProt Q14289); assay: Inhibition of PTK2B (unknown origin) at 1 uM by single point assay
[20] = biological target: Platelet-derived growth factor receptor alpha (Homo sapiens) (UniProt P16234); assay: Inhibition of PDGFRalpha (unknown origin) at 1 uM by single point assay
Platelet-derived growth factor receptor alpha (Homo sapiens), sequence (P16234 whole entry): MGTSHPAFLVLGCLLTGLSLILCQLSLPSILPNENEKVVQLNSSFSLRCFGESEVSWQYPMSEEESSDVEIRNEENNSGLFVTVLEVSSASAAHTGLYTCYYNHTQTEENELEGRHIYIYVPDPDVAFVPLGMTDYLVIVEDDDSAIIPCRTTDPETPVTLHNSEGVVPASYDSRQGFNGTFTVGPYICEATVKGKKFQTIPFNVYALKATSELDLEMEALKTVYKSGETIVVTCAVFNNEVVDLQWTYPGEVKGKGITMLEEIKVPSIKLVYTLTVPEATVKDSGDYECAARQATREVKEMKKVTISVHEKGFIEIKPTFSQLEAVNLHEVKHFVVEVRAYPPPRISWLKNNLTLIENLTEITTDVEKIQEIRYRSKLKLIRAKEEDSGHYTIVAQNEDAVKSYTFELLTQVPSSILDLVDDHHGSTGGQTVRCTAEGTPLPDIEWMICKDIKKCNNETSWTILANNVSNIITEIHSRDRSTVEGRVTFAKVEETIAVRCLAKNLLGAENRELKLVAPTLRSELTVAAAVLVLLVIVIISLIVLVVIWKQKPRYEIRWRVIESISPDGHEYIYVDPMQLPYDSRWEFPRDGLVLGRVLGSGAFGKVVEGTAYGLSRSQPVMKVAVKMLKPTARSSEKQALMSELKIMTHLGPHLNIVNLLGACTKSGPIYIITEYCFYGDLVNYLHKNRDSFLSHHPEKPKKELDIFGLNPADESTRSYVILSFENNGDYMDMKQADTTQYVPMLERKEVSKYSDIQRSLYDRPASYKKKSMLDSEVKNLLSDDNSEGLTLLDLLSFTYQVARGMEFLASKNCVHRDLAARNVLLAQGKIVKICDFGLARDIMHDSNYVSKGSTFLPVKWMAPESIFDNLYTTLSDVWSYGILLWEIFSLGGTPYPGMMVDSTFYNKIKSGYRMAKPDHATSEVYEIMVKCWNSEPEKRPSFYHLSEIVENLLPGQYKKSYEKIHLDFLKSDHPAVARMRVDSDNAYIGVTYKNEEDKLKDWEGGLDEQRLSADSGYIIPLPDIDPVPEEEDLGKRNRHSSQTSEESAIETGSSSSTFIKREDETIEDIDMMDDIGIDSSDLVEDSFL

Receptor tyrosine-protein kinase erbB-4 (Homo sapiens), sequence (Q15303 whole entry): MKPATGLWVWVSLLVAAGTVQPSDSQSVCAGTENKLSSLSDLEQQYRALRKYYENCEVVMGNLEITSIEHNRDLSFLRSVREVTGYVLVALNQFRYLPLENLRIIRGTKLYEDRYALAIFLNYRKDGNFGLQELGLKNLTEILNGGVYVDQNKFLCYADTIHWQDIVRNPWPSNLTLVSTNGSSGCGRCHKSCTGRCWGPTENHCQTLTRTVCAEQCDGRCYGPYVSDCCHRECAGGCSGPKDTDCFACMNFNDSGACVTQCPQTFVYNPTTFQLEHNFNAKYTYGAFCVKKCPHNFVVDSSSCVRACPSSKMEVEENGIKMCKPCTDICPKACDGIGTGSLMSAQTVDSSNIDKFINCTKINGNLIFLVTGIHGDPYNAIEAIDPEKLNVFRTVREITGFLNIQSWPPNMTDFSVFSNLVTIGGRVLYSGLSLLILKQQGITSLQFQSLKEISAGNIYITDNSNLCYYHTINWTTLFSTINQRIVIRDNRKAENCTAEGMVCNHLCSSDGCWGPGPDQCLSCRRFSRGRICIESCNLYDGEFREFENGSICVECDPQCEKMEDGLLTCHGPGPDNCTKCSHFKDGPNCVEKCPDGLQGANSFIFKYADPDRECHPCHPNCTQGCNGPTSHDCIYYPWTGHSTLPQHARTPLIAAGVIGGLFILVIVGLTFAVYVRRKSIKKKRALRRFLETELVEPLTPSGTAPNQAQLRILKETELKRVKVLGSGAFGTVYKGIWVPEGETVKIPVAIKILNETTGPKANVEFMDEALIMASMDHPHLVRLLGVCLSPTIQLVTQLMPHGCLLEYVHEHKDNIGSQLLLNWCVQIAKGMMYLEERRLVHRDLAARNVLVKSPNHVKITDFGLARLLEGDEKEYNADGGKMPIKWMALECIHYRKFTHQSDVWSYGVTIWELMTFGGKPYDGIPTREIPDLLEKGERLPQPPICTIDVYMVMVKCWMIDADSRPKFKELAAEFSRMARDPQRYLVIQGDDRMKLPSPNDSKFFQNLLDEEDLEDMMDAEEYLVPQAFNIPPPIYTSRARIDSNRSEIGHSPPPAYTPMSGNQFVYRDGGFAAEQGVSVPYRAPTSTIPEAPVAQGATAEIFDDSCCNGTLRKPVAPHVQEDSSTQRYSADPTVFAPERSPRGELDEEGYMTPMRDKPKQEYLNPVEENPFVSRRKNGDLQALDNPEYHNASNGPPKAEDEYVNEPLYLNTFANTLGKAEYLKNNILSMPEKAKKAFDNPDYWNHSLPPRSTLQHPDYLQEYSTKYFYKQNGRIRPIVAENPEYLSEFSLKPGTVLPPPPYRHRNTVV
Serine/threonine-protein kinase MARK2 (Homo sapiens), sequence (Q7KZI7 whole entry): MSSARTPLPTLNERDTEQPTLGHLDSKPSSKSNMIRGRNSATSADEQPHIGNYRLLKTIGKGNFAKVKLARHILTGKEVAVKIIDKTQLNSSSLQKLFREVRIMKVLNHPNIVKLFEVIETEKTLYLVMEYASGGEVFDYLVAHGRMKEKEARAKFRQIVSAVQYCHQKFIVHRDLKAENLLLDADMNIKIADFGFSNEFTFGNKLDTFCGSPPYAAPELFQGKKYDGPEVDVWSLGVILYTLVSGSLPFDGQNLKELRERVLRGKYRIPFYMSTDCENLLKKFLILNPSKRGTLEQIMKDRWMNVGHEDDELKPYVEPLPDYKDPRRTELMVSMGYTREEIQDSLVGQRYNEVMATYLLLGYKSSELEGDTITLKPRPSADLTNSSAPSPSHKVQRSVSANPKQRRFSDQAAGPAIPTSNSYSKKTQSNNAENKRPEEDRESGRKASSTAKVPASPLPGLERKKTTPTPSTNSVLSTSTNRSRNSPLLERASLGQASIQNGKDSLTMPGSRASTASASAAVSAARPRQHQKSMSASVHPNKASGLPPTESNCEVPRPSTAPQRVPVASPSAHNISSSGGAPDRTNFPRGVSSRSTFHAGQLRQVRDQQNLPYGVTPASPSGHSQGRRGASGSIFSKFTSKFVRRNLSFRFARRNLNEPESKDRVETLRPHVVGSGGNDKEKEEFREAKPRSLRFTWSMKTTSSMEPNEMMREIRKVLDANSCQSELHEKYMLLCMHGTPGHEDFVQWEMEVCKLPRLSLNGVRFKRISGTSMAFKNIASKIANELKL
RAF proto-oncogene serine/threonine-protein kinase (Homo sapiens), sequence (P04049 whole entry): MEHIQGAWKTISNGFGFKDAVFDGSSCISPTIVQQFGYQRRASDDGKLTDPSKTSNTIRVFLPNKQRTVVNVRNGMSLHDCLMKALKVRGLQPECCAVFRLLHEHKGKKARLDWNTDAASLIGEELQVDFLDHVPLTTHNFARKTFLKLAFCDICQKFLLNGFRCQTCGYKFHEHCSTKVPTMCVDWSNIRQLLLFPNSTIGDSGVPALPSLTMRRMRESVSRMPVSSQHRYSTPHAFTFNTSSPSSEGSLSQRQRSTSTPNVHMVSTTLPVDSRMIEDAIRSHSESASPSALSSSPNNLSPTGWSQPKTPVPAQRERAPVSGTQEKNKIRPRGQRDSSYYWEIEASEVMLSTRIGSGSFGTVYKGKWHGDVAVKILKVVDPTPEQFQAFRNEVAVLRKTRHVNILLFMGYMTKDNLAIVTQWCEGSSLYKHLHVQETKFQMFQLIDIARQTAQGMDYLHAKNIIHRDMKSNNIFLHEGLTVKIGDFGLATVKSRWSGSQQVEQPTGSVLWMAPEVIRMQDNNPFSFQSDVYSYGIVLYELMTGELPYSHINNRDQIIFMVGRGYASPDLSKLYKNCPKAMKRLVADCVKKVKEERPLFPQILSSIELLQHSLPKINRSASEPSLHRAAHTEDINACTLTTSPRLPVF
Dual specificity tyrosine-phosphorylation-regulated kinase 1B (Homo sapiens), sequence (Q9Y463 whole entry, looked up): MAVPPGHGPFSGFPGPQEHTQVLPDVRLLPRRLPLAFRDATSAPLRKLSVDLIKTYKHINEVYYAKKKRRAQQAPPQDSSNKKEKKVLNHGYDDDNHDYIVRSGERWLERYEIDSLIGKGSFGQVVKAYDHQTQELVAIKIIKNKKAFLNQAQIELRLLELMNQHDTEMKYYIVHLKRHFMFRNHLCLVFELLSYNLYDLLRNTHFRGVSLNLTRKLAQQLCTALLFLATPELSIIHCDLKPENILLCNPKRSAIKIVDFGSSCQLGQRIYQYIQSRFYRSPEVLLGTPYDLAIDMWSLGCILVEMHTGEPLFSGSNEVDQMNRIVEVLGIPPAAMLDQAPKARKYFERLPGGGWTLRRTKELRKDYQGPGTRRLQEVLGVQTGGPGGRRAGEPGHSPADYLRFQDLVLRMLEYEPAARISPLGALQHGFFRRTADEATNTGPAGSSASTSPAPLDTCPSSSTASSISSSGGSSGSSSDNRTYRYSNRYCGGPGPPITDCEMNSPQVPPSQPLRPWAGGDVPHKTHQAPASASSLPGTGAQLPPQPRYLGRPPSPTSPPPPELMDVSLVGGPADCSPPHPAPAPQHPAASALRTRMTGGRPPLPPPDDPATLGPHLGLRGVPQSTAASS
Serine/threonine-protein kinase PLK1 (Homo sapiens), sequence (P53350 whole entry): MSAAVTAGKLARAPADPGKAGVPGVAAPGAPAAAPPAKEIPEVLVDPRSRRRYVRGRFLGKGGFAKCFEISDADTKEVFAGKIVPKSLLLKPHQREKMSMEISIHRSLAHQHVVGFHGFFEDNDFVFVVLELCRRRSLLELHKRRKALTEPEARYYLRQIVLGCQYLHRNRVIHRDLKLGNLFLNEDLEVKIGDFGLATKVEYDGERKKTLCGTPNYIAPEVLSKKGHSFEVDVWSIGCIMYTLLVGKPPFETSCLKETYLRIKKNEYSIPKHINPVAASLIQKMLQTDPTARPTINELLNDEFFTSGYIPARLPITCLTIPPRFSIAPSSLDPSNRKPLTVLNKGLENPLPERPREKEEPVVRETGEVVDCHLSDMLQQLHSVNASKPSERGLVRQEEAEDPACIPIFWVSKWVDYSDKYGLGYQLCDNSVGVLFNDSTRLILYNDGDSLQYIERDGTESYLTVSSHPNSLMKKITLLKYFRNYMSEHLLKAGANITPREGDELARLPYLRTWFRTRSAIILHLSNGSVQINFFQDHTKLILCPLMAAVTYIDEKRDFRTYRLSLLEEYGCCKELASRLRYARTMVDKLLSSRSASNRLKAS

With CC(C)Nc1c(C#N)cnc2cc(-c3cnn(C)c3)ccc12 the inhibition [1] was 12%, the inhibition [2] was 14% and the inhibition [3] was 22%. For the same molecule, the inhibition [4] was 24%, the inhibition [5] was 14% and the inhibition [6] was 5%. It also gave an inhibition [7] of 15%, an inhibition [8] of 5% and an inhibition [9] of 64%. The inhibition [10] was 89%, the inhibition [11] was 96% and the inhibition [12] was 68%. It also gave an inhibition [13] of 51%, an inhibition [14] of 41% and an inhibition [15] of 49%. For the same molecule, the inhibition [16] was 27%, the inhibition [17] was 84% and the inhibition [18] was 31%. The inhibition [19] was 12% and the inhibition [20] was 30%.
In the case of CC(C)Nc1c(C#N)cnc2cc(-c3ccc(S(C)(=O)=O)cc3)ccc12, the inhibition [1] is reported as 3%, the inhibition [2] is reported as 12% and the inhibition [3] is reported as -2%. It also gave an inhibition [4] of 20%, an inhibition [5] of 12% and an inhibition [6] of 19%. It also gave an inhibition [7] of 29%, an inhibition [8] of 12% and an inhibition [9] of 52%. For the same molecule, the inhibition [10] was 73%, the inhibition [11] was 82% and the inhibition [12] was 29%. The inhibition [13] was 7%, the inhibition [14] was 15% and the inhibition [15] was 49%. For the same molecule, the inhibition [16] was 25%, the inhibition [17] was 16% and the inhibition [18] was 26%. It also gave an inhibition [19] of 33% and an inhibition [20] of 33%.
